{"source": "paper PMC12016430", "about": "(The Journal of Headache and Pain, 2025)", "test_in_all_cases": "competitive gel-based ABPP", "assay_type_in_all_cases": "cell-based", "key": {"FAAH": {"biological_target": "T1, FAAH (Rattus norvegicus, UniProt P97612)", "T1 sequence (P97612 1-579)": "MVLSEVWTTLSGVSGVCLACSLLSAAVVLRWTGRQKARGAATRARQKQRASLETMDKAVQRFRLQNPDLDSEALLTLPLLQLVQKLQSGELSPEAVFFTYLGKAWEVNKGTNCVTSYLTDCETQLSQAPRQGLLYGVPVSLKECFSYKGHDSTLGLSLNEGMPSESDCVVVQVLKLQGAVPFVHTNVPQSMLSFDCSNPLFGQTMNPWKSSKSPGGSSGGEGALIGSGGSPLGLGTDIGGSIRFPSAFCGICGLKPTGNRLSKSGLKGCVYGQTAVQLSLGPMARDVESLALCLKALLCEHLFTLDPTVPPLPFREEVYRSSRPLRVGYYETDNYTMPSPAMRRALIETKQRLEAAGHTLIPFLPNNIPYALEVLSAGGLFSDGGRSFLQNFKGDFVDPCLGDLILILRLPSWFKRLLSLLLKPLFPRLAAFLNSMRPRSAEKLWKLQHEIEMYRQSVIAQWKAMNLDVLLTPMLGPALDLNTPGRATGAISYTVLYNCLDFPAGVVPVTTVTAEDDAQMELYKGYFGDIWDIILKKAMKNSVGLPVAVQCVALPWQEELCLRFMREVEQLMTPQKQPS"}, "ABHD6": {"biological_target": "T2, ABHD6 (Rattus norvegicus, UniProt Q5XI64)", "T2 sequence (Q5XI64 1-337)": "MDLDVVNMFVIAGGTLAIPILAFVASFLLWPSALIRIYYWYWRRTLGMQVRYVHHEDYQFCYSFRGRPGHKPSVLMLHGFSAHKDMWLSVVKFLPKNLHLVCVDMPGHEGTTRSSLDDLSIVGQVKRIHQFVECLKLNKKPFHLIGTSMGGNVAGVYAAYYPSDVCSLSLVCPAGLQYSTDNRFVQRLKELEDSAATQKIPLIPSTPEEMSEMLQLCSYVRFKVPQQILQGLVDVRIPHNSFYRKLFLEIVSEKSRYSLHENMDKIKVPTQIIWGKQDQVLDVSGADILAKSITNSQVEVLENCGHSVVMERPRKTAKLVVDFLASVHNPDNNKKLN"}, "MAGL": {"biological_target": "T3, MAGL (Rattus norvegicus, UniProt Q8R431)", "T3 sequence (Q8R431 1-303)": "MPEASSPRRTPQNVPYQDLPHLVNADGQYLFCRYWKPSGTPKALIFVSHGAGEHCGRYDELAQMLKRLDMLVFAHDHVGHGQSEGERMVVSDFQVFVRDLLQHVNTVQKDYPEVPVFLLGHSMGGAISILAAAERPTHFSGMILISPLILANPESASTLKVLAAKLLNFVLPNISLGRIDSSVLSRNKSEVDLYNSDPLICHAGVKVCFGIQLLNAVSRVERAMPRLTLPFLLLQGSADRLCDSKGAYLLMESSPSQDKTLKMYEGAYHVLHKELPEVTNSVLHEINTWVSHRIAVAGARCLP"}}, "data": [{"compound": "O=C(N1CCN(C(c2ccccc2)c2ccccc2)CC1)n1cncn1", "note": "[AKU-005]", "values": [{"measurement": "% inhibition at 100 nM", "setting": "FAAH", "result": 79}, {"measurement": "% inhibition at 100 nM", "setting": "ABHD6", "result": 30}, {"measurement": "% inhibition at 100 nM", "setting": "MAGL", "result": 79}]}]}
